Measured values as given in patent US20200155632A1, “COMPOSITION FOR TREATING AND PREVENTING MALE SEXUAL DISORDERS” (KOLINPHARMA S.P.A., priority 2017, published 2020).
Each block holds one molecule with its values, some of them ahead of it.

Assays:
[1] = tested on: rats affected by type-1 diabetes; settings: 400 mg/kg/daily; cited from earlier work
[2] = tested on: cGMP in ECV-304 cells (human vascular endothelium cells); assay: cGMP levels by ELISA in ECV-304 cells after treatment with Menix active ingredients and associations; assay type: cell-based; set-up: Average % deviation from control (cGMP levels): concentration or dose not given beside the values; settings: for pM (cGMP), levels of expression of cGMP: 48 hours of treatment, average of n=3 biological replicates, concentrations of Table 3, control 82.1; for Average % deviation from control (cGMP levels): 48 hours, vs non-treated cells
Description: For this experiment, human vascular endothelium cells were selected (ECV-304). […] At this point, the cells were treated with trypsin and EDTA and were re-examined in appropriate culture flasks.
The cGMP levels were determined by ELISA assay, following the operating instructions given in the protocol supplied by the manufacturer (cGMP ELISA KIT—STA 505-5, Cloud Clone Corp), running the assay in the acetylated embodiment to increase the sensitivity thereof.
For the experiment, the ECV-304 cells were sowed in MW-6 and treated for 48 hours with the active ingredients of Menix and associations thereof. After the 48 hours had elapsed, the supernatants were collected and frozen at −80° C. until use. The untreated cells were used as a control.
The base levels of cGMP were determined by ELISA assay, following instructions supplied by the manufacturer (STA 505-5 Cell Biolabs Inc).
The results, expressed in terms of concentration (pM) of cGMP average±standard deviation (n=3 biological replicates), are set out in FIG. 3 and Table 4.

aged rats = settings: dissolved 1% in water; cited from earlier work
[3] = Solubility tests of the active ingredients of Menix; assay type: physicochemical; settings: tested in order: culture medium, water, DMSO, organic solvents
Source text: Before being subjected to the cell assays, the active ingredients of Menix have been subjected to solubility tests to define the best solubilization agent for each of the assays.

diabetic rat = settings: cited from earlier work
[4] = tested on: subjects suffering from erectile dysfunction (from mild to moderate); settings: 600 mg/daily, 26 subjects; cited from earlier work
ICAM-1 and P-selectine = settings: 2 g daily, adjuvant to sildenafil twice weekly; cited from earlier work
[5] = tested on: subjects suffering from mild erectile dysfunction; settings: 1.5 g daily for a month, oral, 24 subjects; cited from earlier work
[6] = tested on: rats with acute arteriogenic erectile dysfunction; settings: 2% p/v in water for three weeks; cited from earlier work
[7] = oral administration; cited from earlier work

- Solvent in which the active ingredient has been solubilized [3]: Culture medium
Structure (SMILES): NCCS(=O)(=O)O [TAURINE, 2-aminoethanesulphonic acid]
- Levels of cGMP and eNOS in the corpus cavernosum [1]: increased the levels of both cGMP and eNOS
- Pressure inside the corpus cavernosum [1]: increase in pressure inside the corpus cavernosum
- pM (cGMP), levels of expression of cGMP [2]: 137 pM
- Average % deviation from control (cGMP levels) [2]: 66.87%
- Levels of NOS and NO in the rat's penis (aged rats): increases levels of both NOS and NO
- Secretion of androgens, testosterone (aged rats): increases the secretion of androgens and in particular of testosterone
- Sperm quality (count, vitality, motility) (aged rats): improves sperm quality

Structure (SMILES): NCC(=O)[O-].NCC(=O)[O-].[Zn+2] [Zn, zinc bisglycinate]
- pM (cGMP), levels of expression of cGMP [2]: 90 pM
- Average % deviation from control (cGMP levels) [2]: 9.62%

Structure (SMILES): CC(=O)O[C@H](CC(=O)[O-])C[N+](C)(C)C [N-ACETYL-L-CARNITINE, (R)-3-acetyloxy-4-trimethylammonio-butanoate]
- pM (cGMP), levels of expression of cGMP [2]: 22 pM
- Average % deviation from control (cGMP levels) [2]: −73.20%
- Solvent in which the active ingredient has been solubilized [3]: Water

Structure (SMILES): O=C(O)CCCCC1CCSS1 (racemic) [α-LIPOIC ACID, alpha-lipoic acid]
- pM (cGMP), levels of expression of cGMP [2]: 60 pM
- Average % deviation from control (cGMP levels) [2]: −26.92%
- Levels of endothelial NOS and neuron NOS (diabetic rat; 65 mg/kg/daily for 15 days): increase in levels of endothelial NOS and of neuron NOS
- Corpus cavernosum dysfunctions (diabetic rat; 300 mg/kg/daily for a month): prevented and ameliorated corpus cavernosum dysfunctions
- Indicators connected to erectile dysfunction (IIEF-5) [4]: significant improvement

Structure (SMILES): CCC(=O)O[C@H](CC(=O)[O-])C[N+](C)(C)C [propionyl-L-carnitine]
- Endogenous levels of endothelial dysfunction markers such as ICAM-1 and P-selectine (ICAM-1 and P-selectine): significant reduction

Structure (SMILES): NC(=O)NCCCC(N)C(=O)O (centres unmarked) [CITRULLINE, 2-amino-5-(carbamoylamino)pentanoic acid]
- pM (cGMP), levels of expression of cGMP [2]: 140 pM
- Average % deviation from control (cGMP levels) [2]: 70.52%
- Erectile function on EHS and IIEF-5 [5]: increase in erectile function
- Erectile function [6]: significant improvement in erectile function
- NO plasmatic levels [6]: increasing NO plasmatic levels
- Blood levels of L-arginine compared with basic values [7]: increase in the blood levels of L-arginine
- Solvent in which the active ingredient has been solubilized [3]: Culture medium
